{"source": "patent US20130344053A1", "about": "“Methods of Modifying Insulin Signaling Using Biliverdin Reductase (BVR) and BVR Derived Peptides” (University of Rochester, priority 2010, published 2013)", "key": {"[1]": {"test_system": "rat smooth muscle cells (PAC1)", "assay": "Glucose uptake in PAC1 cells (IGF-dependent)", "format": "cell-based", "details": "myristoylated peptide 2 h, then IGF-1 50 ng/ml 10 min", "protocol": "Glucose uptake was tested as described infra. Cells were starved in low glucose serum-depleted DMEM for 20 hours prior to transfer to PBS containing CaCl2, MgCl2. After 2 hrs myristoylated peptides were added to the medium for 2 hours. Thereafter, IGF-1 (50 ng/ml) or insulin (100 nM) was added (10 min) and glucose uptake was tested for 3 min in the presence of methyl-D-glucose,3-O-[methyl-3H]. Subsequently cells were washed 3 times in cold PBS and solubilized in NaOH (0.05 mM). Aliquots were measured for radioactivity. Non-specific binding or diffusion were tested by addition of 300 mM glucose to the cells. This value was deducted from the total counts (on the average <20%) and results were normalized for protein concentration.\n(§1) FIGS. 15A-B show the effect of hBVR-based peptides on IGF-dependent glucose uptake in rat smooth muscle cells (PAC1) (FIG. 15A) and insulin-dependent glucose uptake in human epithelial kidney (HEK) cells (FIG. 15B). Cells were treated as described for FIG. 14 and glucose uptake was measured as described infra.\n(§2) The therapeutic utility of various BVR peptides with regard to their ability to modify insulin and insulin growth factor (IGF) mediated cellular glucose uptake was evaluated. Human embryonic kidney cells (HEK293) or rat aortic smooth muscle cells (PAC) were starved in low glucose serum-depleted DMEM for twenty hours prior to transfer to PBS containing CaCl2, MgCl2. After two hours, myristoylated peptides were added to the medium for two additional hours. Thereafter, IGF-1 (50 ng/ml) or insulin (100 nM) was added (10 min) and glucose uptake was tested for three minutes in the presence of methyl-D-glucose,3-O-[methyl-3H]. Subsequently, cells were washed three times in cold PBS and solubilized in NaOH (0.05 mM). Aliquots were measured for radioactivity. Non-specific binding or diffusion was tested by addition of 300 mM glucose to the cells. This value was deducted from the total counts (on the average <20%) and results were normalized for protein concentration."}, "[2]": {"test_system": "human epithelial kidney (HEK) cells", "assay": "Insulin-dependent glucose uptake in HEK cells", "format": "cell-based", "details": "myristoylated peptide 2 h, then insulin 100 nM 10 min", "protocol": "as §1, §2"}, "[3]": {"assay": "Blood glucose levels after tail vein injection", "format": "in vivo", "details": "Sprague Dawley rats, 11 μg/g body weight, measured at 20, 40, 60, 100 min", "protocol": "FIG. 16 is a graph illustrating the blood glucose levels measured over time course following tail vein injection to Sprague Dawley rats of the KKRILHC (SEQ ID NO: 60) peptide in solution (11 μg/g body weight) or a vehicle control solution.\nIn an experiment designed to evaluate the ability of the C-terminal KKRILHC BVR peptide fragment (SEQ ID NO: 60) to modulate insulin signaling and blood glucose levels, Sprague Dawley rats were administered, via tail vein injection, the KKRILHC peptide (SEQ ID NO: 60) in solution (11 μg/g body weight) or a vehicle control solution. […] This increase in blood glucose levels was at 20, 40, and 60 minutes following administration, gradually decreasing over the 100 minute time course of assessment."}}, "data": [{"substance": "KKRILHC (Biliverdin reductase derived peptide) [hBVR peptide, amino acids 275-281 of BVR]", "values": [{"measurement": "IGF-mediated cellular glucose uptake in PAC1 cells", "setting": "[1]", "value": "inhibit IGF-mediated cellular glucose uptake"}, {"measurement": "insulin mediated cellular glucose uptake in HEK cells", "setting": "[2]", "value": "antagonizing insulin mediated cellular glucose uptake"}, {"measurement": "blood glucose levels compared to vehicle controls", "setting": "[3]", "value": "immediate increase in the blood glucose levels"}]}]}
